{"source": "patent US10071082B2", "about": "“Antimicrobial agents” (Rutgers, The State University of New Jersey, priority 2013, dated 2018)", "key": {"[1]": {"tested_on": "S. aureus ATCC 43300 (MRSA)", "assay": "Test D in vivo efficacy, mouse peritonitis model of systemic infection", "conditions": "mice, p.o."}, "[2]": {"tested_on": "S. aureus ATCC 19636 (MSSA)", "assay": "Test D in vivo efficacy, mouse peritonitis model of systemic infection", "conditions": "mice"}, "[3]": {"tested_on": "MRSA", "assay": "Test A antibacterial assay, broth microdilution MIC", "type": "cell-based", "conditions": "Staphylococcus aureus, read-out: MIC MRSA", "experimental": "(§1) Antibacterial activity can be determined as per Clinical and Laboratory Standards Institute (CLSI) guidelines using a broth microdilution assay in which log-phase bacteria are grown at 37° C. in appropriate medium containing two-fold serial dilutions of a compound to yield final concentrations ranging from 256 to 0.06 μg/mL. For determination of minimal inhibitory concentration (MIC) values, bacterial growth is monitored after 24 to 48 hours by measuring optical density at 600 nm."}, "[4]": {"tested_on": "MSSA", "assay": "Test A antibacterial assay, broth microdilution MIC", "type": "cell-based", "conditions": "Staphylococcus aureus, read-out: MIC MSSA", "experimental": "as §1"}}}
{"compound": "CN1CCC(C(=O)NC(=O)c2c(F)ccc(OCc3nc4cc(Cl)cnc4s3)c2F)CC1", "note": "[Example 17]", "values": [{"measurement": "Survival (%)", "setting": "[1]; 3x, total dose 2.4 mg/mouse, first dose 5 minutes prior to infection, 24 Hrs", "result": 66.7, "unit": "%"}, {"measurement": "Survival (%)", "setting": "[1]; 3x, total dose 2.4 mg/mouse, first dose 5 minutes prior to infection, 48 Hrs", "result": 16.7, "unit": "%"}, {"measurement": "Survival (%)", "setting": "[1]; 3x, total dose 2.4 mg/mouse, first dose 5 minutes prior to infection, 72 Hrs", "result": 16.7, "unit": "%"}, {"measurement": "Survival (%)", "setting": "[1]; 6x, total dose 4.8 mg/mouse, 24 Hrs", "result": 83.3, "unit": "%"}, {"measurement": "Survival (%)", "setting": "[1]; 6x, total dose 4.8 mg/mouse, 48 Hrs", "result": 50, "unit": "%"}, {"measurement": "Survival (%)", "setting": "[1]; 6x, total dose 4.8 mg/mouse, 72 Hrs", "result": 50, "unit": "%"}, {"measurement": "Survival (%)", "setting": "[1]; 6x, total dose 4.8 mg/mouse, first dose 5 minutes prior to infection, 24 Hrs", "result": 100, "unit": "%"}, {"measurement": "Survival (%)", "setting": "[1]; 6x, total dose 4.8 mg/mouse, first dose 5 minutes prior to infection, 48 Hrs", "result": 100, "unit": "%"}, {"measurement": "Survival (%)", "setting": "[1]; 6x, total dose 4.8 mg/mouse, first dose 5 minutes prior to infection, 72 Hrs", "result": 100, "unit": "%"}, {"measurement": "Survival (%)", "setting": "[1]; 6x, total dose 4.8 mg/mouse, first dose 10 minutes post-infection, 24 Hrs", "result": 100, "unit": "%"}, {"measurement": "Survival (%)", "setting": "[1]; 6x, total dose 4.8 mg/mouse, first dose 10 minutes post-infection, 48 Hrs", "result": 100, "unit": "%"}, {"measurement": "Survival (%)", "setting": "[1]; 6x, total dose 4.8 mg/mouse, first dose 10 minutes post-infection, 72 Hrs", "result": 100, "unit": "%"}, {"measurement": "Survival (%)", "setting": "[2]; i.v., 1x, total dose 0.6 mg/mouse, first dose immediately prior to infection, 24 Hrs", "result": 0, "unit": "%"}, {"measurement": "Survival (%)", "setting": "[2]; i.v., 1x, total dose 0.6 mg/mouse, first dose immediately prior to infection, 48 Hrs", "result": 0, "unit": "%"}, {"measurement": "Survival (%)", "setting": "[2]; i.v., 1x, total dose 0.6 mg/mouse, first dose immediately prior to infection, 72 Hrs", "result": 0, "unit": "%"}, {"measurement": "Survival (%)", "setting": "[2]; i.v., 2x, total dose 1.2 mg/mouse, first dose immediately prior to infection, 24 Hrs", "result": 0, "unit": "%"}, {"measurement": "Survival (%)", "setting": "[2]; i.v., 2x, total dose 1.2 mg/mouse, first dose immediately prior to infection, 48 Hrs", "result": 0, "unit": "%"}, {"measurement": "Survival (%)", "setting": "[2]; i.v., 2x, total dose 1.2 mg/mouse, first dose immediately prior to infection, 72 Hrs", "result": 0, "unit": "%"}, {"measurement": "Survival (%)", "setting": "[2]; i.v., 3x, total dose 1.8 mg/mouse, first dose immediately prior to infection, 24 Hrs", "result": 33.3, "unit": "%"}, {"measurement": "Survival (%)", "setting": "[2]; i.v., 3x, total dose 1.8 mg/mouse, first dose immediately prior to infection, 48 Hrs", "result": 33.3, "unit": "%"}, {"measurement": "Survival (%)", "setting": "[2]; i.v., 3x, total dose 1.8 mg/mouse, first dose immediately prior to infection, 72 Hrs", "result": 33.3, "unit": "%"}, {"measurement": "Survival (%)", "setting": "[2]; i.v., 4x, total dose 2.4 mg/mouse, first dose immediately prior to infection, 24 Hrs", "result": 83.3, "unit": "%"}, {"measurement": "Survival (%)", "setting": "[2]; i.v., 4x, total dose 2.4 mg/mouse, first dose immediately prior to infection, 48 Hrs", "result": 83.3, "unit": "%"}, {"measurement": "Survival (%)", "setting": "[2]; i.v., 4x, total dose 2.4 mg/mouse, first dose immediately prior to infection, 72 Hrs", "result": 83.3, "unit": "%"}, {"measurement": "Survival (%)", "setting": "[2]; p.o., 1x, total dose 0.8 mg/mouse, first dose 5 minutes prior to infection, 24 Hrs", "result": 0, "unit": "%"}, {"measurement": "Survival (%)", "setting": "[2]; p.o., 1x, total dose 0.8 mg/mouse, first dose 5 minutes prior to infection, 48 Hrs", "result": 0, "unit": "%"}, {"measurement": "Survival (%)", "setting": "[2]; p.o., 1x, total dose 0.8 mg/mouse, first dose 5 minutes prior to infection, 72 Hrs", "result": 0, "unit": "%"}, {"measurement": "Survival (%)", "setting": "[2]; p.o., 2x, total dose 1.6 mg/mouse, first dose 5 minutes prior to infection, 24 Hrs", "result": 0, "unit": "%"}, {"measurement": "Survival (%)", "setting": "[2]; p.o., 2x, total dose 1.6 mg/mouse, first dose 5 minutes prior to infection, 48 Hrs", "result": 0, "unit": "%"}, {"measurement": "Survival (%)", "setting": "[2]; p.o., 2x, total dose 1.6 mg/mouse, first dose 5 minutes prior to infection, 72 Hrs", "result": 0, "unit": "%"}, {"measurement": "Survival (%)", "setting": "[2]; p.o., 4x, total dose 3.2 mg/mouse, 24 Hrs", "result": 83.3, "unit": "%"}, {"measurement": "Survival (%)", "setting": "[2]; p.o., 4x, total dose 3.2 mg/mouse, 48 Hrs", "result": 83.3, "unit": "%"}, {"measurement": "Survival (%)", "setting": "[2]; p.o., 4x, total dose 3.2 mg/mouse, 72 Hrs", "result": 83.3, "unit": "%"}, {"measurement": "Survival (%)", "setting": "[2]; p.o., 4x, total dose 3.2 mg/mouse, first dose 5 minutes prior to infection, 24 Hrs", "result": 100, "unit": "%"}, {"measurement": "Survival (%)", "setting": "[2]; p.o., 4x, total dose 3.2 mg/mouse, first dose 5 minutes prior to infection, 48 Hrs", "result": 100, "unit": "%"}, {"measurement": "Survival (%)", "setting": "[2]; p.o., 4x, total dose 3.2 mg/mouse, first dose 5 minutes prior to infection, 72 Hrs", "result": 100, "unit": "%"}, {"measurement": "MIC", "setting": "[3]", "result": 4, "unit": "µg/mL"}, {"measurement": "MIC", "setting": "[4]", "result": 2, "unit": "µg/mL"}]}
{"compound": "CN1CCC(C(=O)NC(=O)c2c(F)ccc(OCc3nc4cc(C(F)(F)F)cnc4s3)c2F)CC1", "note": "[Example 44]", "values": [{"measurement": "Survival (%)", "setting": "[2]; i.v., 1x, total dose 0.9 mg/mouse, 24 Hrs", "result": 83.3, "unit": "%"}, {"measurement": "Survival (%)", "setting": "[2]; i.v., 1x, total dose 0.9 mg/mouse, 48 Hrs", "result": 83.3, "unit": "%"}, {"measurement": "Survival (%)", "setting": "[2]; i.v., 1x, total dose 0.9 mg/mouse, 72 Hrs", "result": 83.3, "unit": "%"}, {"measurement": "Survival (%)", "setting": "[2]; i.v., 2x, total dose 1.8 mg/mouse, 24 Hrs", "result": 100, "unit": "%"}, {"measurement": "Survival (%)", "setting": "[2]; i.v., 2x, total dose 1.8 mg/mouse, 48 Hrs", "result": 100, "unit": "%"}, {"measurement": "Survival (%)", "setting": "[2]; i.v., 2x, total dose 1.8 mg/mouse, 72 Hrs", "result": 100, "unit": "%"}, {"measurement": "Survival (%)", "setting": "[2]; p.o., 1x, total dose 0.8 mg/mouse, 24 Hrs", "result": 50, "unit": "%"}, {"measurement": "Survival (%)", "setting": "[2]; p.o., 1x, total dose 0.8 mg/mouse, 48 Hrs", "result": 50, "unit": "%"}, {"measurement": "Survival (%)", "setting": "[2]; p.o., 1x, total dose 0.8 mg/mouse, 72 Hrs", "result": 50, "unit": "%"}, {"measurement": "Survival (%)", "setting": "[2]; p.o., 2x, total dose 1.6 mg/mouse, 24 Hrs", "result": 100, "unit": "%"}, {"measurement": "Survival (%)", "setting": "[2]; p.o., 2x, total dose 1.6 mg/mouse, 48 Hrs", "result": 100, "unit": "%"}, {"measurement": "Survival (%)", "setting": "[2]; p.o., 2x, total dose 1.6 mg/mouse, 72 Hrs", "result": 100, "unit": "%"}, {"measurement": "Survival (%)", "setting": "[2]; p.o., 3x, total dose 2.4 mg/mouse, 24 Hrs", "result": 100, "unit": "%"}, {"measurement": "Survival (%)", "setting": "[2]; p.o., 3x, total dose 2.4 mg/mouse, 48 Hrs", "result": 100, "unit": "%"}, {"measurement": "Survival (%)", "setting": "[2]; p.o., 3x, total dose 2.4 mg/mouse, 72 Hrs", "result": 100, "unit": "%"}, {"measurement": "Survival (%)", "setting": "[2]; p.o., 4x, total dose 3.2 mg/mouse, n/group 4, 24 Hrs", "result": 100, "unit": "%"}, {"measurement": "Survival (%)", "setting": "[2]; p.o., 4x, total dose 3.2 mg/mouse, n/group 4, 48 Hrs", "result": 100, "unit": "%"}, {"measurement": "Survival (%)", "setting": "[2]; p.o., 4x, total dose 3.2 mg/mouse, n/group 4, 72 Hrs", "result": 100, "unit": "%"}, {"measurement": "MIC", "setting": "[3]", "result": 2, "unit": "µg/mL"}, {"measurement": "MIC", "setting": "[4]", "result": 0.5, "unit": "µg/mL"}]}
